# Test system: bovine brain tubulin
# Experiment: Microtubule pelleting assay
# Type: biochemical
# Details: 100 μM compound, microtubules 2 mg/mL, 30 min at 37° C.
# Procedure: A microtubule pelleting assay is used to test in vitro the direct effect of the tubulin binding compounds described herein such as the compounds listed in Tables 1, 2, and 3. […] Freshly polymerised/depolymerised bovine brain tubulin is supplemented with 34% Glycerol and 1 mM GTP and adjusted to a concentration of 4 mg/mL. Polymerization into microtubule is achieved by incubating the tubulin at 37° C. for 30 min.
# To assess the effect of the compounds tested, a final concentration of 100 μM is added to the warm microtubules diluted at 2 mg/mL and after a 30 min incubation at 37° C., the reaction mixture is added on top of a glycerol cushion. After high speed centrifugation at 80,000 rpm for 15 min, the microtubule pellet fractions are separated from the supernatant fractions and analyzed by SDS-PAGE. In the presence of the 3 MDAs, the tubulin band is observed in the pellet fractions, which indicates the […] effect of these compounds. […] The test compounds generally show destabilizing effect on microtubules.
smiles,measurement,value
CC(=O)O[C@H]1C(=O)[C@@]2(C)[C@H]([C@H](OC(=O)c3ccccc3)[C@]3(O)C[C@H](OC(=O)[C@H](O)[C@@H](NC(=O)c4ccccc4)c4ccccc4)C(C)=C1C3(C)C)[C@]1(OC(C)=O)CO[C@@H]1C[C@@H]2O [taxol],"effect on microtubules (tubulin in pellet vs supernatant fractions, SDS-PAGE)",increases the amount of tubulin observed in the pellet fraction

# Source: patent US11633393B2, “Tubulin binding compounds and therapeutic use thereof” (BeyondSpring Pharmaceuticals, Inc., priority 2017, dated 2023)
